Among the data in patent publication US8664409B2, “Process for the preparation of (poly) aminoalkylaminoacetamide derivatives of epipodophyllotoxin useful for their applications in therapeutics as anticancer agent” (Pierre Fabre Medicament, priority 2007, dated 2014) are melting point values, retold here.

Structures can show the parent of a compound that is named as a salt.

As a reminder, the melting point is the temperature of the solid-liquid transition.

In the case of `COc1cc(C2c3cc4c(cc3[C@@H](NC(=O)CNCCCCNCCCCNCCCCN)[C@H]3COC(=O)C23)OCO4)cc(OC)c1O` (some centres unmarked) (as salt: hydrochloride), the melting point stood at 263 °C.

On to `COc1cc(C2c3cc4c(cc3[C@@H](NC(=O)CNCCCCNCCCN)[C@H]3COC(=O)C23)OCO4)cc(OC)c1O` (some centres unmarked) (as salt: hydrochloride), for which the melting point turned out to be 197 °C.
